Values quoted from earlier work as cited in US12569478B2 (priority 2021, dated 2026).

Details: in vivo

C=CCN1CC[C@]23c4c5ccc(O)c4O[C@H]2C(=O)CC[C@@]3(O)[C@H]1C5 [naloxone]
half-life: ~1 h
